According to paper PMC2903749 (ACS medicinal chemistry letters, 2010):
Where two headings read alike, the source gives them in different places.

What was measured:
proline racemase = conditions: cited from earlier work
Glutamate racemase (GR) = Glutamate racemase (GR) (Bacillus subtilis, UniProt P94556); experiment: biochemical
Chain of Glutamate racemase (GR) (P94556 whole entry): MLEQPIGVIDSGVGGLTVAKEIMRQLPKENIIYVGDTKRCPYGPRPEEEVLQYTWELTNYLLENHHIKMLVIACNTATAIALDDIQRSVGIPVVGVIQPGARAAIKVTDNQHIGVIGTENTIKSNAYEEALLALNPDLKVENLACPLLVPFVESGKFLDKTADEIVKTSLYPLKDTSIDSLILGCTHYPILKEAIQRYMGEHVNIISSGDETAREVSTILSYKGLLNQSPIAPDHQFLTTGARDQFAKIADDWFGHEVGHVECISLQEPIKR

SMILES	Ki (proline racemase; read-out: Ki1, first of two binding states) [µM]	Ki (proline racemase; read-out: Ki2, second of two binding states) [µM]	Ki (Glutamate racemase (GR)) [µM]
O=C(O)c1ccc[nH]1 [PYC, pyrrole-2-carboxylic acid]	4.6	30	–
NC(=O)CC[C@H](N)C(=O)O [glutamine]	–	–	50000
